Here are results for five substances from US20160146815A1, “METHOD FOR SCREEING CANCER METASTASIS INHIBITOR USING CULTURE OF CELLS OR SPHEROIDICALLY AGGREGATED CELLS IN WHICH LYSYL-TRNA SYNTHETASE IS REGULATED TO BE EXPRESSED OR UNEXPRESSED” (Medicinal Bioconvergence Research Center, priority 2013, published 2016).

For data set [1], the system named is HCT116 spheroidically aggregated cells. Description: Dissemination of cells from spheroidically aggregated cells in three-dimensional collagen gel (time-lapse microscope). It counts as cell-based, human. As to the method:
Particularly, 2.5 mg/Ml of collagen containing cells was loaded in the magnetic 4-well chamber (Live Cell Instrument, Korea) for the culture system of time-lapse microscope, and the collagen was hardened in a 37° C. incubator for 30 minutes. When the collagen was fully solidified, PRMI-1640 supplemented with 10% FBS was added thereto. The magnetic chamber containing three-dimensional collagen gel and its corresponding adaptor were placed on the time-lapse microscope, followed by setting the multi-position. […] 5% CO2 incubator. Culture medium was added thereto every 6 hours in order for the collagen not to be dried. At this time, it is important to maintain the focus not to be changed. […]
As confirmed in the result of Example 14, when the HCT116 parental cells were treated with TGFβ1, the dissemination of cells from the spheroidically aggregated cells and migration thereof were observed. When the KRS knock-out cell line was treated with TGFβ1, the dissemination of cells was not observed. […] When the extracellular signal-regulated kinase (ERKs) inhibitor U0126 was treated to the HCT116 parental cells, it was presumed to be negative effect on the dissemination and migration of cells. To verify above, 50 μM of U0126, the ERKs inhibitor, was treated to the cell line, followed by observation of cell dissemination and migration by real-time live imaging of the spheroidically aggregated cells.

In a further data set the test system is HCT116 cells. Description: EMT marker protein expression in two-dimensional culture treated with cytokines (Western blotting). To be noted: 10% FBS. It counts as cell-based, human. As to the method:
Particularly, the cell line cultured in a two-dimensional environment with 10% serum was washed with PBS twice, followed by reaction at 4° C. for 15 minutes in 200 μl of lysis buffer [50 mM Tris-HCl, pH 7.4, 1% NP-40, 0.25% sodium deoxycholate, 150 mM NaCl, 1 mM EDTA] supplemented with SDS, Na3O4V, and protease inhibitor cocktails (GenDepot, USA). The cells were collected and centrifuged at 4° C. at 13000×g for 30 minutes. The supernatant was transferred in a new microcentrifuge tube, followed by protein quantification using BCA reagent (Thermo Scientifics, USA). To the quantified sample was added 4× sample buffer [100% glycerol 4 ml, Tris-HCl, pH 6.8, 2.4 ml, SDS 0.8 g, bromophenol blue 4 mg, β-mercaptoethanol 0.4 ml, H2O 3.1 ml (total 10 Ml)], which was boiled at 100° C. for 5 minutes. The prepared sample was treated with the primary antibodies of ZO-1 (Zymed, USA), β-catenin (Santa Cruz, USA), and E-cadherin by the same manner as described in Example <1-2>.
To observe the surrounding microenvironmental factors in a two-dimensional culture environment over the time, the culture fluid supplemented with 10% FBS was additionally treated with such cytokines as TNFα and TGFβ, followed by investigation of the expression of the epithelial marker protein that can be an index for cell-cell adhesion by the same manner as described in Example <3-1>.
(In western blotting, separated proteins are transferred to a membrane and probed.)

Data set [2] has as its system lysyl-tRNA synthetase (KRS). Description: KRS expression after shRNA transfection (Western blotting). It counts as cell-based, homo sapiens. To be noted: HCT116 cells transfected with KRS shRNA plasmid DNA. From the text: Particularly, the cell line wherein KRS expression was suppressed was constructed by transfecting cells with lysyl-tRNA synthetase MISSION® shRNA plasmid DNA (Sigma, USA). At this time, the said KRS was homo sapiens lysyl-tRNA synthetase (transcript variant 1, mRNA sequence: NM_001130089.1). This KRS includes […] long exon 1˜15. Among the purchased KRS shRNA plasmid DNAs, shKRS-0 (SEQ. ID. NO: 1) targets 1581˜1604 bp (exon 12) of KRS, shRKS-1 (SEQ. ID. NO: 2) targets 437˜459 bp (exon 3˜4), shKRS-2 (SEQ. ID. NO: 3) targets 911˜933 bp (exon 7), and shKRS-5 (SEQ. ID. NO: 4) targets 1071˜1092 bp (exon 8). TRC1.5-pLK0.1-puro was used as the expression vector. Selection was performed by using puromycin to establish stable cell lines.
Western blotting was performed to investigate whether or not the KRS expression was inhibited in the spheroidically aggregated cells of the KRS knock-out cell lines constructed by the method of Example <2-1>.

[3] abbreviates: TGFβ1, normal HCT116 and KRS over-expressing cell line.

“Also recorded” adds a separate entry of the source.

As for “TGFβ1: the most representative multifunctional and EMT inducing cytokine”, the “formation of invasive protrusion” value in data set [1] (TGFβ1, 36 hours, HCT116 parental cells and KRS over-expressing cell lines) is reported as “not observed”. Further, the “dissemination of cells from spheroid cells” value in data set [1] (TGFβ1, HCT116 parental cells and KRS over-expressing cell lines) was “observed”. Further, in data set [1] (TGFβ1, KRS knock-out cell line), the cell migration result is “significantly decreased”; the dissemination of cells entry was “not and not observed”. In addition, in the data set on HCT116 cells (KRS knock-out cell line), the “epithelial marker protein like occludin (ZO-1 and occludin) expression” value is “increase; also recorded: up-regulated”; the fibronectin expression entry was “reduced; also recorded: down-regulated; also recorded: decrease”. For the same substance, in the data set with HCT116 cells (setting [3]), the fibronectin expression result was “up-regulated” and the “occludin or ZO-1 expression” value is on record as “down-regulated”.

As to TNFα, the “formation of invasive protrusion” value in data set [1] (TNFα, 36 hours, HCT116 parental cells, KRS over-expressing cell line and KRS knock-out cell line) is “increased”. For the same substance, the “dissemination of cells from the cell mass and cell migration” value in data set [1] (TNFα, 36 hours, parental, KRS over-expressing and KRS knock-out cell lines (regardless of KRS expression)) is recorded as “observed”. Further, in the data set on HCT116 cells (KRS knock-out cell line), the “epithelial marker protein like occludin (ZO-1 and occludin) expression” value is “increased”; the fibronectin expression result was “reduced”. The “expression of the epithelial marker protein” value with HCT116 cells (TNFα, normal HCT116 and KRS over-expressing cell line) is listed as “not changed”.

As to “shKRS-0: KRS MISSION shRNA plasmid DNA (Sigma), SEQ. ID. NO: 1, targets 1581˜1604 bp (exon 12) of KRS (DNA CCGGCCTGGAAGTGACTTGCATCAACTCGAGTTGATGCAAGTCACTTCCAGGTTTTTG)”, the KRS expression entry in data set [2] was “KRS inhibiting effect”.

Consider “shKRS-2: KRS MISSION shRNA plasmid DNA (Sigma), SEQ. ID. NO: 3, targets 911˜933 bp (exon 7) of KRS (DNA CCGGCCAGAGATACTTGGACTTGATCTCGAGATCAAGTCCAAGTATCTCTGGTTTTTG)”, for which the KRS expression result in data set [2] is reported as “KRS inhibiting effect”.

As to “shKRS-5: KRS MISSION shRNA plasmid DNA (Sigma), SEQ. ID. NO: 4, targets 1071˜1092 bp (exon 8) of KRS (DNA CCGGGCCTTTCATCACTTATCACAACTCGAGTTGTGATAAGTGATGAAAGGCTTTTTG)”, the KRS expression result in data set [2] is listed as “KRS inhibiting effect”.
